Laboratory results as given in patent US9365583B2, “Substituted pyrazoles and uses thereof” (Genentech, Inc., priority 2013, dated 2016).

Target: T1, N-terminally GST-tagged DLK (catalytic domain amino acid 1-520) (Homo sapiens, UniProt Q12852)
T1 construct: N-terminally GST-tagged DLK (catalytic domain amino acid 1-520); purchased Carna Bioscience
T1 sequence (Q12852 1-520): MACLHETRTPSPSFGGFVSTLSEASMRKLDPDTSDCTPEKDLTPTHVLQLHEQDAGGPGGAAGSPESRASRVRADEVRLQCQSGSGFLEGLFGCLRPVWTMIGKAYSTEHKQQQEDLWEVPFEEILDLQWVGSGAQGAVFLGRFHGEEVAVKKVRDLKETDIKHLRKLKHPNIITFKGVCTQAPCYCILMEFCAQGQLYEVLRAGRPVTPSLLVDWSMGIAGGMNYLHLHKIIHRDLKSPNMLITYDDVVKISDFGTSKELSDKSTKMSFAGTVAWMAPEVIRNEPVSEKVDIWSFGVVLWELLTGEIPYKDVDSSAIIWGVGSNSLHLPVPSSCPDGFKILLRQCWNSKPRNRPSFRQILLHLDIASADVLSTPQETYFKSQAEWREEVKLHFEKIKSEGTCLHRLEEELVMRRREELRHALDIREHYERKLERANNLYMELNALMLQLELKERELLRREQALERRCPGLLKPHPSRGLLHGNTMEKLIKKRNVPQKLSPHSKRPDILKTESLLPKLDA
Test: DLK TR-FRET inhibition assay
Assay type: biochemical
Conditions: 5 nM GST-DLK, 40 nM HIS-MKK4 K131M substrate, 30 μM ATP, 60 minutes at ambient temperature
How it was run: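 Phosphorylated MKK4 was quantified by TR-FRET (Eu-labelled anti-phospho-MKK4, D2 anti-HIS; 3 h, 665 and 615 nm emission) after EDTA quench. Reactions held 5 nM GST-tagged DLK catalytic domain (1-520), 40 nM HIS-MKK4 K131M substrate, 30 μM ATP and compound (3-fold series from 20 uM), 60 min, room temperature, pH 7.5.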

| Compound | Ki |
| --- | --- |
| CC(C)n1nc(-c2cnc(N)c(OC(F)F)c2)cc1[C@H]1[C@@H]2C[C@H](NCC(F)(F)F)C[C@@H]21 [compound 120, 3-(difluoromethoxy)-5-(1-isopropyl-5-((1R,3r,5S,6r)-3-((2,2,2-trifluoroethyl)amino)bicyclo [3.1.0]hexan-6-yl)-1H-pyrazol-3-yl) pyridin-2-amine] | 6.91 nM |
| CC(C)n1nc(-c2cnc(N)c(C(F)(F)F)c2)cc1[C@H]1[C@@H]2C[C@H](N3CCS(=O)(=O)CC3)C[C@@H]21 [compound 10, 4-((1R,3r,5S,6r)-6-(3-(6-amino-5-(trifluoromethyl)pyridin-3-yl)-1-isopropyl-1H-pyrazol-5-yl)bicyclo[3.1.0]hexan-3-yl)thio-morpholine 1,1-dioxide] | 3.28 nM |
| CC(C)n1nc(-c2cnc(N)c(C(F)(F)F)c2)cc1[C@H]1[C@@H]2C[C@@H](N3CCCOCC3)C[C@@H]21 [compound 102, 5-(5-((1R,3s,5S,6r)-3-(1,4-oxazepan-4-yl)bicyclo[3.1.0]hexan-6-yl)-1-isopropyl-1H-pyrazol-3-yl)-3-(trifluoromethyl)pyridin-2-amine] | 0.79 nM |
| CC(C)n1nc(-c2cnc(N)c(C(F)(F)F)c2)cc1[C@H]1[C@@H]2CC3(C[C@@H]21)CN(C)CCO3 (single isomer, unassigned) [compound 197] | 1.3 nM |
| CO[C@H]1CCN([C@@H]2C[C@@H]3[C@H](C2)[C@H]3c2cc(-c3cnc(N)c(OC(F)F)c3)nn2CC2CC2)C1 [compound 159, 5-(1-(cyclopropylmethyl)-5-((1R,3s,5S,6S)-3-((S)-3-methoxy-pyrrolidin-l-yl)bicyclo[3.1.0]hexan-6-yl)-1H-pyrazol-3-yl)-3-(difluoromethoxy)pyridin-2-amine] | 1.9 nM |
| CC(C)n1nc(-c2cnc(N)c(C(F)(F)F)c2)cc1[C@H]1[C@@H]2C[C@H](N3CCN(C)CC3)C[C@@H]21 [compound 63, 5-(1-isopropyl-5-((1R,3r,5S,6r)-3-(4-methylpiperazin-1-yl)bicyclo [3.1.0]hexan-6-yl)-1H-pyrazol-3-yl)-3-(trifluoromethyl)pyridin-2-amine] | 2.21 nM |
| CO[C@H]1CCN([C@H]2C[C@@H]3[C@H](C2)[C@H]3c2cc(-c3cnc(N)c(OC(F)F)c3)nn2CC2CC2)C1 [compound 158, 5-(1-(cyclopropylmcthyl)-5-((1R,3r,5S,6S)-3-((S)-3-methoxy-pyrrolidin-1-yl)bicyclo[3.1.0]hexan-6-yl)-1H-pyrazol-3-yl)-3-(difluoromethoxy)pyridin-2-amine] | 1.2 nM |
| CC(C)n1nc(-c2cnc3ccn([C@@H](C)c4ccccn4)c3c2)cc1[C@H]1[C@@H]2C[C@@H](N3CCOCC3)C[C@@H]21 [compound 24, 4-((1R,3R,5S,6r)-6-(1-isopropyl-3-(1-((S)-1-(pyridin-2-yl)ethyl)-1H-pyrrolo[3,2-b]pyridin-6-yl)-1H-pyrazol-5-yl)bicyclo[3.1.0]hexan-3-yl)morpholine] | 0.34 nM |
| CC(C)n1nc(-c2cnc(N)c(C(F)(F)F)c2)cc1[C@H]1[C@@H]2C[C@@H](N3CCOC[C@@H]3C)C[C@@H]21 [compound 103, 5-(1-isopropyl-5-((1R,3s,5S,6S)-3-((S)-3-methylmorpholino)bicyclo[3.1.0]hexan-6-yl)-1H-pyrazol-3-yl)-3-(trifluoromethyl) pyridin-2-amine] | 1.28 nM |
| CC(C)n1nc(-c2cnc(N)c(OC(F)(F)F)c2)cc1[C@H]1[C@@H]2C[C@@]3(CCN3C3COC3)C[C@@H]21 [compound 140, 5-(1-isopropyl-5-((1′R,2r,5′S,6′r)-1-(oxetan-3-yl)spiro[azetidine-2,3′-bicyclo[3.1.0]hexan]-6′-yl)-1H-pyrazol-3-yl)-3-(trifluoro-methoxy)pyridin-2-amine] | 6.59 nM |
| CC(C)n1nc(-c2cnc(N)c(C(F)(F)F)c2)cc1[C@H]1[C@@H]2C[C@@H](n3ccnc3)C[C@@H]21 [compound 114, 5-(5-((1R,3s,5S,6r)-3-(1H-imidazol-1-yl)bicyclo[3.1.0]hexan-6-yl)-1-isopropyl-1H-pyrazol-3-yl)-3-(trifluoromethyl)pyridin-2-amine] | 15.1 nM |
| CC(C)n1nc(-c2cnc(N)c(C(F)(F)F)c2)cc1[C@H]1[C@@H]2C[C@H](N3C[C@@H]4C[C@H]3CN4C)C[C@@H]21 [compound 200, 5-(1-isopropyl-5-((1R,3r,5S,6S)-3-((1S,4S)-5-methyl-2,5-diazabicyclo [2.2.1]heptan-2-yl)bicyclo [3.1.0]hexan-6-yl)-1H-pyrazol-3-yl)-3-(trifluoromethyl)pyridin-2-amine] | 2 nM |

Further lines, results first:

| Ki | Compound |
| --- | --- |
| 3.4 nM | CO[C@H]1CCCN([C@H]2C[C@@H]3[C@H](C2)[C@H]3c2cc(-c3cnc(N)c(C(F)(F)F)c3)nn2C(C)C)C1 [compound 286, 5-(1-isopropyl-5-((1R,3r,5S,6S)-3-((S)-3-methoxypiperidin-1-yl)bicyclo[3.1.0]hexan-6-yl)-1H-pyrazol-3-yl)-3-(trifluoromethyl) pyridin-2-amine] |
| 1.1 nM | Nc1ncc(-c2cc([C@H]3[C@@H]4C[C@@H](N5CCCOCC5)C[C@@H]43)n(CC(F)F)n2)cc1OC(F)(F)F [compound 243, 5-(5-((1R,3s,5S,6r)-3-(1,4-oxazepan-4-yl)bicyclo[3.1.0]hexan-6-yl)-1-(2,2-difluoroethyl)-1H-pyrazol-3-yl)-3-(trifluoromethoxy) pyridin-2-amine] |
| 1 nM | CC(C)n1nc(-c2cnc(N)c(C(F)(F)F)c2)cc1[C@H]1[C@@H]2C[C@@H](N3CCN4CCCC4C3)C[C@@H]21 (single isomer, unassigned) [compound 263] |
| 15.8 nM | CC(C)n1nc(-c2cnc(N)c(OC(F)F)c2)cc1[C@H]1[C@@H]2C[C@@H](Cl)C[C@@H]21 [compound 236, 5-(5-((1R,3s,5S,6r)-3-chlorobicyclo [3.1.0]hexan-6-yl)-1-isopropyl-1H-pyrazol-3-yl)-3-(difluoro-methoxy)pyridin-2-amine] |
| 2 nM | CC(C)n1nc(-c2cnc(N)c(OC(F)(F)F)c2)cc1[C@H]1[C@@H]2C[C@@H](N3CC4(CCCO4)C3)C[C@@H]21 [compound 221, 5-(5-((1R,3s,5S,6r)-3-(5-oxa-2-azaspiro[3.4]octan-2-yl)bicyclo [3.1.0]hexan-6-yl)-1-isopropyl-1H-pyrazol-3-yl)-3-(trifluoromethoxy) pyridin-2-amine] |
| 0.9 nM | CC(C)n1nc(-c2cnc(N)c(OC(F)(F)F)c2)cc1[C@H]1[C@@H]2C[C@@H](N3CCCN(C)CC3)C[C@@H]21 [compound 203, 5-(1-isopropyl-5-((1R,3s,5S,6r)-3-(4-methyl-1,4-diazepan-1-yl)bicyclo[3.1.0]hexan-6-yl)-1H-pyrazol-3-yl)-3-(trifluoromethoxy) pyridin-2-amine] |
| 4.4 nM | CO[C@H]1CCN([C@H]2C[C@@H]3[C@H](C2)[C@H]3c2cc(-c3cnc(N)c(OC(F)F)c3)nn2C(C)C)C1 [compound 212, 3-(difluoromethoxy)-5-(1-isopropyl-5-((1R,3r,5S,6S)-3-((S)-3-methoxypyrrolidin-1-yl)bicyclo [3.1.0]hexan-6-yl)-1H-pyrazol-3-yl)pyridin-2-amine] |
| 2.5 nM | CC(C)n1nc(-c2cnc(N)c(C(F)(F)F)c2)cc1[C@H]1[C@@H]2C[C@H](N3CCN(CC(F)F)CC3)C[C@@H]21 [compound 265, 5-(5-((1R,3r,5S,6r)-3-(4-(2,2-difluoroethyl)piperazin-1-yl)bicyclo[3.1.0]hexan-6-yl)-1-isopropyl-1H-pyrazol-3-yl)-3-(trifluoromethyl)pyridin-2-amine] |
